The values below are quoted from earlier work in US20020155997A1 (priority 2000, published 2002).

In this series the test system is bovine plasma. The following applies: reference standard.

Take dextran sulfate: the “anticoagulant activity of the standard” value is 25 units/mg.
